pIC50: −log10 of the molar value.
test system: IFNγ-Induced NO Production; test: Nitric Oxide Suppression Assay (Suppression of IFNγ-Induced NO Production); assay type: cell-based; settings: RAW264.7; RAW 264.7 mouse macrophage cells; 2 hour pre-treatment with compound (3 μM to 0.3 nM, 10 point curve); 20 ng/mL interferon gamma, ~18 hour; Griess detection; n=2-3 in duplicates
Summary of the method: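 Mouse RAW 264.7 macrophages pre-treated 2 h at 37 °C with compound (3 μM to 0.3 nM, 10 points; DMSO ≤1%), then stimulated with 20 ng/mL interferon gamma for ~18 h. Supernatant nitrite measured by Griess reaction, absorbance 520–550 nm. IC50 from curve fit of signal normalised to IFNγ alone, mean n=2-3 in duplicate.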

SMILES	pIC50
C[C@@H]1C(=O)C(C#N)=C[C@]2(c3ccccc3)c3nn(C)c(-c4cccc(-c5ccc(O)cc5)c4)c3CC[C@@H]12 [Example 170, (5aS,6S,9aR)-3-(4′-hydroxybiphenyl-3-yl)-2,6-dimethyl-7-oxo-9a-phenyl-4,5,5a,6,7,9a-hexahydro-2H-benzo[g]indazole-8-carbonitrile]	8.16
C[C@@H]1C(=O)C(C#N)=C[C@]2(c3ccccc3)c3nn(C)c(-c4cccc(-c5ccc(C(N)=O)cc5)c4)c3CC[C@@H]12 [Example 171, 3′-[(5aS,6S,9aR)-8-cyano-2,6-dimethyl-7-oxo-9a-phenyl-4,5,5a,6,7,9a-hexahydro-2H-benzo[g]indazol-3-yl]biphenyl-4-carboxamide]	7.86
Cc1nc(-c2ccnnc2)c2c(n1)[C@@]1(c3ccccc3)C=C(C#N)C(=O)[C@@H](C)[C@@H]1CC2 [Example 172, (6aS,7S,10aR)-2,7-dimethyl-8-oxo-10a-phenyl-4-(pyridazin-4-yl)-5,6,6a,7,8,10a-hexahydrobenzo[h]quinazoline-9-carbonitrile]	7.31
Cc1noc(-c2ccc(-c3ncc4c(n3)[C@@]3(c5ccccc5)C=C(C#N)C(=O)[C@@H](C)[C@@H]3CC4)cc2)n1 [Example 173, (6aS,7S,10aR)-7-methyl-2-[4-(3-methyl-1,2,4-oxadiazol-5-yl)phenyl]-8-oxo-10a-phenyl-5,6,6a,7,8,10a-hexahydrobenzo[h]quinazoline-9-carbonitrile]	7.71
COc1ccc([C@]23C=C(C#N)C(=O)[C@@H](C)[C@@H]2CCc2c(-c4cncn4C)nc(C)nc23)cc1 [Example 174, (6aS,7S,10aR)-10a-(4-methoxyphenyl)-2,7-dimethyl-4-(1-methyl-1H-imidazol-5-yl)-8-oxo-5,6,6a,7,8,10a-hexahydrobenzo[h]quinazoline-9-carbonitrile]	8.72
COC(=O)c1ccc([C@]23C=C(C#N)C(=O)[C@@H](C)[C@@H]2CCc2c(-c4cncn4C)nc(C)nc23)cc1 [Example 175, methyl 4-[(6aS,7S,10aR)-9-cyano-2,7-dimethyl-4-(1-methyl-1H-imidazol-5-yl)-8-oxo-6,6a,7,8-tetrahydrobenzo[h]quinazolin-10a(5H)-yl]benzoate]	8.70
COC(=O)c1ccc([C@]23C=C(C#N)C(=O)[C@@H](C)[C@@H]2CCc2c(-c4c(Br)ncn4C)nc(C)nc23)cc1 [Example 176, methyl 4-[(6aS,7S,10aR)-4-(4-bromo-1-methyl-1H-imidazol-5-yl)-9-cyano-2,7-dimethyl-8-oxo-6,6a,7,8-tetrahydrobenzo[h]quinazolin-10a(5H)-yl]benzoate]	7.89
C[C@@H]1C(=O)C(C#N)=C[C@]2(c3ccccc3)c3nn(C)c(-c4cncnc4)c3CC[C@@H]12 [Example 177, (5aS,6S,9aR)-2,6-dimethyl-7-oxo-9a-phenyl-3-(pyrimidin-5-yl)-4,5,5a,6,7,9a-hexahydro-2H-benzo[g]indazole-8-carbonitrile]	7.97
C[C@@H]1C(=O)C(C#N)=C[C@]2(c3ccccc3)c3nn(C)c(-c4cccnc4)c3CC[C@@H]12 [Example 178, (5aS,6S,9aR)-2,6-dimethyl-7-oxo-9a-phenyl-3-(pyridin-3-yl)-4,5,5a,6,7,9a-hexahydro-2H-benzo[g]indazole-8-carbonitrile]	8.27
C[C@@H]1C(=O)C(C#N)=C[C@]2(c3ccccc3)c3c(c(-c4cncnc4)nn3C)CC[C@@H]12 [Example 179, (5aS,6S,9aR)-1,6-dimethyl-7-oxo-9a-phenyl-3-(pyrimidin-5-yl)-4,5,5a,6,7,9a-hexahydro-1H-benzo[g]indazole-8-carbonitrile]	8.91

Source: patent US9464082B2, “Aryl and arylalkyl substituted pyrazolyl and pyrimidinyl tricyclic enones as antioxidant inflammation modulators” (AbbVie Inc., priority 2014, dated 2016)
